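How tested: cells in 96-well plates exposed to compound for 48 hours at five concentrations. GI50 is the concentration that inhibits growth by half. Definition used: TGI = concentration required for complete inhibition of growth.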
How the values were obtained:
Experiment in all cases: NCI tumour cell line growth inhibition, 48 h
786-0 renal = system: 786-0 renal
A498 renal = system: A498 renal
A549 NSCLC = system: A549 NSCLC
ACHN renal = system: ACHN renal
BT-549 breast = system: BT-549 breast
CAKI-1 renal = system: CAKI-1 renal
CCRF-CEM leukemia = system: CCRF-CEM leukemia
COLO 205 colon = system: COLO 205 colon
DU-145 prostate = system: DU-145 prostate
EKVX NSCLC = system: EKVX NSCLC
HCC-2998 colon = system: HCC-2998 colon
HCT-116 colon = system: HCT-116 colon
HCT-15 colon = system: HCT-15 colon
HL-60(TB) leukemia = system: HL-60(TB) leukemia
HOP-62 NSCLC = system: HOP-62 NSCLC
HOP-92 NSCLC = system: HOP-92 NSCLC
HS 578T breast = system: HS 578T breast
HT29 colon = system: HT29 colon
IGROV1 ovarian = system: IGROV1 ovarian
K-562 leukemia = system: K-562 leukemia
KM12 colon = system: KM12 colon
LOX IMVI melanoma = system: LOX IMVI melanoma
M14 melanoma = system: M14 melanoma
MALME-3M melanoma = system: MALME-3M melanoma
MCF7 breast = system: MCF7 breast
MDA-MB-231 breast = system: MDA-MB-231 breast
MDA-MB-435 = system: MDA-MB-435
MOLT-4 leukemia = system: MOLT-4 leukemia
NCI-H226 lung = system: NCI-H226 lung
NCI-H23 lung = system: NCI-H23 lung
NCI-H460 lung = system: NCI-H460 lung
NCI-H522 lung = system: NCI-H522 lung
NCI/ADR-RES ovarian = system: NCI/ADR-RES ovarian
OVCAR-3 ovarian = system: OVCAR-3 ovarian
OVCAR-4 ovarian = system: OVCAR-4 ovarian
OVCAR-5 ovarian = system: OVCAR-5 ovarian
OVCAR-8 ovarian = system: OVCAR-8 ovarian
PC-3 prostate = system: PC-3 prostate
RPMI-8226 leukemia = system: RPMI-8226 leukemia
RXF 393 renal = system: RXF 393 renal
SF-268 CNS = system: SF-268 CNS
SF-295 CNS = system: SF-295 CNS
SF-539 CNS = system: SF-539 CNS
SK-MEL-2 melanoma = system: SK-MEL-2 melanoma
SK-MEL-28 melanoma = system: SK-MEL-28 melanoma
SK-MEL-5 melanoma = system: SK-MEL-5 melanoma
SK-OV-3 ovarian = system: SK-OV-3 ovarian
SN12C renal = system: SN12C renal
SNB-19 CNS = system: SNB-19 CNS
SNB-75 CNS = system: SNB-75 CNS
SR leukemia = system: SR leukemia
SW-620 colon = system: SW-620 colon
T-47D breast = system: T-47D breast
TK-10 renal = system: TK-10 renal
U251 CNS = system: U251 CNS
UACC-257 melanoma = system: UACC-257 melanoma
UACC-62 melanoma = system: UACC-62 melanoma
UO-31 renal = system: UO-31 renal

CCN1C(=O)NC(=O)C(C)(N2C(=O)c3c(F)c(F)c(F)c(F)c3C2=O)C1=O (stereo unspecified) was tested. Which GI50 (786-0 renal) did it give?
Its GI50 is 4.49 µM.

And the TGI (786-0 renal)?
Its TGI is 17.7 µM.

And the GI50 (A498 renal)?
Its GI50 is 17.7 µM.

What about the TGI (A498 renal) of the same compound?
The TGI was 32.9 µM.

And the GI50 (A549 NSCLC)?
The GI50 was 3.69 µM.

And the TGI (A549 NSCLC)?
Its TGI is 18.3 µM.

And the GI50 (ACHN renal)?
The GI50 was 2.03 µM.

What about the TGI (ACHN renal) of the same compound?
The TGI was 3.94 µM.

What about the GI50 (BT-549 breast) of the same compound?
The GI50 was 3.82 µM.

What about the TGI (BT-549 breast) of the same compound?
The TGI was 13.3 µM.

And the GI50 (CAKI-1 renal)?
The GI50 was 1.94 µM.

And the TGI (CAKI-1 renal)?
The TGI was 4.86 µM.

What about the GI50 (CCRF-CEM leukemia) of the same compound?
The GI50 was 1.89 µM.

What about the TGI (CCRF-CEM leukemia) of the same compound?
Its TGI is 4.54 µM.

What about the GI50 (COLO 205 colon) of the same compound?
Its GI50 is 2.13 µM.

And the TGI (COLO 205 colon)?
Its TGI is 4.47 µM.

And the GI50 (DU-145 prostate)?
Its GI50 is 3.13 µM.

And the TGI (DU-145 prostate)?
The TGI was 11.6 µM.

And the GI50 (EKVX NSCLC)?
The GI50 was 5.76 µM.

And the TGI (EKVX NSCLC)?
The TGI was 18 µM.

And the GI50 (HCC-2998 colon)?
The GI50 was 2.52 µM.

What about the TGI (HCC-2998 colon) of the same compound?
Its TGI is 7.77 µM.

And the GI50 (HCT-116 colon)?
The GI50 was 2.36 µM.

What about the TGI (HCT-116 colon) of the same compound?
Its TGI is 7.31 µM.

What about the GI50 (HCT-15 colon) of the same compound?
Its GI50 is 2.86 µM.

And the TGI (HCT-15 colon)?
Its TGI is 11.1 µM.

And the GI50 (HL-60(TB) leukemia)?
The GI50 was 1.61 µM.

And the TGI (HL-60(TB) leukemia)?
Its TGI is 3.49 µM.

What about the GI50 (HOP-62 NSCLC) of the same compound?
Its GI50 is 5.97 µM.

And the TGI (HOP-62 NSCLC)?
Its TGI is 18.3 µM.

And the GI50 (HOP-92 NSCLC)?
Its GI50 is 1.86 µM.

And the TGI (HOP-92 NSCLC)?
Its TGI is 4.12 µM.

What about the GI50 (HS 578T breast) of the same compound?
The GI50 was 3.95 µM.

What about the TGI (HS 578T breast) of the same compound?
The TGI was 25.1 µM.

And the GI50 (HT29 colon)?
Its GI50 is 2.4 µM.

What about the TGI (HT29 colon) of the same compound?
Its TGI is 8.58 µM.

What about the GI50 (IGROV1 ovarian) of the same compound?
Its GI50 is 1.9 µM.

What about the TGI (IGROV1 ovarian) of the same compound?
The TGI was 4.92 µM.

What about the GI50 (K-562 leukemia) of the same compound?
Its GI50 is 1.66 µM.

What about the TGI (K-562 leukemia) of the same compound?
The TGI was 3.71 µM.

What about the GI50 (KM12 colon) of the same compound?
The GI50 was 2.11 µM.

What about the TGI (KM12 colon) of the same compound?
The TGI was 4.56 µM.

What about the GI50 (LOX IMVI melanoma) of the same compound?
The GI50 was 1.87 µM.

What about the TGI (LOX IMVI melanoma) of the same compound?
The TGI was 4 µM.

What about the GI50 (M14 melanoma) of the same compound?
Its GI50 is 3.16 µM.

What about the TGI (M14 melanoma) of the same compound?
The TGI was 10.7 µM.

And the GI50 (MALME-3M melanoma)?
Its GI50 is 2.06 µM.

What about the TGI (MALME-3M melanoma) of the same compound?
Its TGI is 5.48 µM.

And the GI50 (MCF7 breast)?
The GI50 was 2.77 µM.

What about the TGI (MCF7 breast) of the same compound?
Its TGI is 13.5 µM.

What about the GI50 (MDA-MB-231 breast) of the same compound?
Its GI50 is 2.66 µM.

And the TGI (MDA-MB-231 breast)?
The TGI was 9.13 µM.

What about the GI50 (MDA-MB-435) of the same compound?
Its GI50 is 2.96 µM.

And the TGI (MDA-MB-435)?
The TGI was 10.6 µM.

And the GI50 (MOLT-4 leukemia)?
The GI50 was 2.44 µM.

And the TGI (MOLT-4 leukemia)?
The TGI was 10.1 µM.

What about the GI50 (NCI-H226 lung) of the same compound?
The GI50 was 9.58 µM.

And the TGI (NCI-H226 lung)?
Its TGI is 36.7 µM.

What about the GI50 (NCI-H23 lung) of the same compound?
The GI50 was 3.92 µM.

And the TGI (NCI-H23 lung)?
The TGI was 17.7 µM.

What about the GI50 (NCI-H460 lung) of the same compound?
Its GI50 is 4.95 µM.

And the TGI (NCI-H460 lung)?
The TGI was 10.6 µM.

What about the GI50 (NCI-H522 lung) of the same compound?
The GI50 was 1.66 µM.

What about the TGI (NCI-H522 lung) of the same compound?
Its TGI is 3.97 µM.

And the GI50 (NCI/ADR-RES ovarian)?
Its GI50 is 3.6 µM.

What about the TGI (NCI/ADR-RES ovarian) of the same compound?
The TGI was 18.2 µM.

What about the GI50 (OVCAR-3 ovarian) of the same compound?
Its GI50 is 1.71 µM.

What about the TGI (OVCAR-3 ovarian) of the same compound?
The TGI was 3.22 µM.

And the GI50 (OVCAR-4 ovarian)?
Its GI50 is 2.44 µM.

What about the TGI (OVCAR-4 ovarian) of the same compound?
Its TGI is 6.31 µM.

And the GI50 (OVCAR-5 ovarian)?
Its GI50 is 3.82 µM.

What about the TGI (OVCAR-5 ovarian) of the same compound?
Its TGI is 14.8 µM.

And the GI50 (OVCAR-8 ovarian)?
The GI50 was 3.55 µM.

What about the TGI (OVCAR-8 ovarian) of the same compound?
Its TGI is 22.6 µM.

And the GI50 (PC-3 prostate)?
The GI50 was 3.09 µM.

And the TGI (PC-3 prostate)?
Its TGI is 10.5 µM.

What about the GI50 (RPMI-8226 leukemia) of the same compound?
Its GI50 is 1.65 µM.

What about the TGI (RPMI-8226 leukemia) of the same compound?
Its TGI is 6.53 µM.

And the GI50 (RXF 393 renal)?
Its GI50 is 1.99 µM.

And the TGI (RXF 393 renal)?
Its TGI is 4.43 µM.

And the GI50 (SF-268 CNS)?
The GI50 was 2.6 µM.

What about the TGI (SF-268 CNS) of the same compound?
Its TGI is 7.43 µM.

What about the GI50 (SF-295 CNS) of the same compound?
The GI50 was 9.67 µM.

What about the TGI (SF-295 CNS) of the same compound?
Its TGI is 23.9 µM.

And the GI50 (SF-539 CNS)?
The GI50 was 2.89 µM.

What about the TGI (SF-539 CNS) of the same compound?
Its TGI is 8.02 µM.

What about the GI50 (SK-MEL-2 melanoma) of the same compound?
The GI50 was 3.84 µM.

What about the TGI (SK-MEL-2 melanoma) of the same compound?
The TGI was 21.6 µM.

And the GI50 (SK-MEL-28 melanoma)?
Its GI50 is 2.25 µM.

What about the TGI (SK-MEL-28 melanoma) of the same compound?
Its TGI is 5.82 µM.

What about the GI50 (SK-MEL-5 melanoma) of the same compound?
Its GI50 is 4.92 µM.

What about the TGI (SK-MEL-5 melanoma) of the same compound?
Its TGI is 13.7 µM.

What about the GI50 (SK-OV-3 ovarian) of the same compound?
Its GI50 is 10.1 µM.

What about the TGI (SK-OV-3 ovarian) of the same compound?
Its TGI is 24.6 µM.

And the GI50 (SN12C renal)?
The GI50 was 3.99 µM.

What about the TGI (SN12C renal) of the same compound?
Its TGI is 14.6 µM.

And the GI50 (SNB-19 CNS)?
The GI50 was 9.49 µM.

What about the TGI (SNB-19 CNS) of the same compound?
The TGI was 24.9 µM.

And the GI50 (SNB-75 CNS)?
The GI50 was 2.96 µM.

And the TGI (SNB-75 CNS)?
The TGI was 11.1 µM.

What about the GI50 (SR leukemia) of the same compound?
The GI50 was 0.444 µM.

What about the TGI (SR leukemia) of the same compound?
Its TGI is 2.22 µM.

What about the GI50 (SW-620 colon) of the same compound?
Its GI50 is 1.82 µM.

What about the TGI (SW-620 colon) of the same compound?
The TGI was 3.85 µM.

What about the GI50 (T-47D breast) of the same compound?
Its GI50 is 3.42 µM.

And the TGI (T-47D breast)?
Its TGI is 11.9 µM.

And the GI50 (TK-10 renal)?
The GI50 was 3.72 µM.

And the TGI (TK-10 renal)?
Its TGI is 18.6 µM.

What about the GI50 (U251 CNS) of the same compound?
Its GI50 is 1.93 µM.

What about the TGI (U251 CNS) of the same compound?
Its TGI is 4.04 µM.

And the GI50 (UACC-257 melanoma)?
The GI50 was 4.26 µM.

And the TGI (UACC-257 melanoma)?
The TGI was 14 µM.

What about the GI50 (UACC-62 melanoma) of the same compound?
The GI50 was 2.75 µM.

What about the TGI (UACC-62 melanoma) of the same compound?
Its TGI is 9.57 µM.

And the GI50 (UO-31 renal)?
Its GI50 is 2.39 µM.

What about the TGI (UO-31 renal) of the same compound?
The TGI was 6.98 µM.
